In patent US20230079757A1, “METHODS AND MATERIALS FOR TREATING CANCER” (Mayo Foundation for Medical Education and Research, priority 2020, published 2023):
l = locked nucleic acid (LNA); d = 2'-deoxy (DNA)

B1: FOXA1-F266L (other, UniProt P55317 1-472, looked up)
chain: MLGTVKMEGHETSDWNSYYADTQEAYSSVPVSNMNSGLGSMNSMNTYMTMNTMTTSGNMTPASFNMSYANPGLGAGLSPGAVAGMPGGSAGAMNSMTAAGVTAMGTALSPSGMGAMGAQQAASMNGLGPYAAAMNPCMSPMAYAPSNLGRSRAGGGGDAKTFKRSYPHAKPPYSYISLITMAIQQAPSKMLTLSEIYQWIMDLFPYYRQNQQRWQNSIRHSLSFNDCFVKVARSPDKPGKGSYWTLHPDSGNMFENGCYLRRQKRLKCEKQPGAGGGGGSGSGGSGAKGGPESRKDPSGASNPSADSPLHRGVHGKTGQLEGAPAPGPAASPQTLDHSGATATGGASELKTPASSTAPPISSGPGALASVPASHPAHGLAPHESQLHLKGDPHYSFNHPFSINNLMSSSEQQHKLDFKAYEQALQYSPYGSTLPASLPLGSASVTTRSPIEPSALEPAYYQGVYSRPVLNTS
notes: Ectopically expressed in 293T cells
B2: FOXA1-R261G (other, UniProt P55317 1-472, looked up)
chain: MLGTVKMEGHETSDWNSYYADTQEAYSSVPVSNMNSGLGSMNSMNTYMTMNTMTTSGNMTPASFNMSYANPGLGAGLSPGAVAGMPGGSAGAMNSMTAAGVTAMGTALSPSGMGAMGAQQAASMNGLGPYAAAMNPCMSPMAYAPSNLGRSRAGGGGDAKTFKRSYPHAKPPYSYISLITMAIQQAPSKMLTLSEIYQWIMDLFPYYRQNQQRWQNSIRHSLSFNDCFVKVARSPDKPGKGSYWTLHPDSGNMFENGCYLGRQKRFKCEKQPGAGGGGGSGSGGSGAKGGPESRKDPSGASNPSADSPLHRGVHGKTGQLEGAPAPGPAASPQTLDHSGATATGGASELKTPASSTAPPISSGPGALASVPASHPAHGLAPHESQLHLKGDPHYSFNHPFSINNLMSSSEQQHKLDFKAYEQALQYSPYGSTLPASLPLGSASVTTRSPIEPSALEPAYYQGVYSRPVLNTS
notes: as for B1
B3: FOXA1-H247Q (other, UniProt P55317 1-472, looked up)
chain: MLGTVKMEGHETSDWNSYYADTQEAYSSVPVSNMNSGLGSMNSMNTYMTMNTMTTSGNMTPASFNMSYANPGLGAGLSPGAVAGMPGGSAGAMNSMTAAGVTAMGTALSPSGMGAMGAQQAASMNGLGPYAAAMNPCMSPMAYAPSNLGRSRAGGGGDAKTFKRSYPHAKPPYSYISLITMAIQQAPSKMLTLSEIYQWIMDLFPYYRQNQQRWQNSIRHSLSFNDCFVKVARSPDKPGKGSYWTLQPDSGNMFENGCYLRRQKRFKCEKQPGAGGGGGSGSGGSGAKGGPESRKDPSGASNPSADSPLHRGVHGKTGQLEGAPAPGPAASPQTLDHSGATATGGASELKTPASSTAPPISSGPGALASVPASHPAHGLAPHESQLHLKGDPHYSFNHPFSINNLMSSSEQQHKLDFKAYEQALQYSPYGSTLPASLPLGSASVTTRSPIEPSALEPAYYQGVYSRPVLNTS
notes: as for B1

How the values were obtained:
[1] = test system: MyC-CaP prostate tumors; test: Growth of subcutaneous MyC-CaP prostate tumors in FVB male mice; assay type: in vivo; details: ASO 12.5 mg/kg intraperitoneal, n=6
Experimental: (§1) FIGS. 19A-19B. FOXA1 ASOs sensitize prostate cancer to anti-PD-L1 immunotherapy in mice. (FIG. 19A) Western blot analysis of Foxal protein in MyC-CaP mouse prostate cancer cells at 48 hours after transfection with control ASO (Con ASO), Foxal gene specific ASO1, or Foxa1 gene specific ASO2. Erk2 was used as a loading control. (FIG. 19B) Growth of subcutaneous MyC-CaP prostate tumors in wild type intact FVB male mice. Mice were treated with anti-PD-L1 or non-specific IgG (10 mg/kg) in combination with control ASO (Con ASO) (12.5 mg/kg), Foxal ASO1 (12.5 mg/kg), or Foxa1 ASO2 (12.5 mg/kg) for the indicated number of days. Data shown as means ±s.d. (n=6). Statistical significance was determined by two-way ANOVA (* P<0.05; ** P <0.01; *** P <0.0001).
MyC-CaP cells (3×10^6) were injected subcutaneously into the right flank of 6-week-old wild-type intact FVB male mice. When the average tumor volume reached approximately 100 mm^3, mice were randomized into groups subsequently treated with intraperitoneal injection of anti-PD-L1 or non-specific control IgG (10 mg/kg) in combination with control antisense oligonucleotides (12.5 mg/kg), Foxal ASO1 (12.5 mg/kg), or Foxal-ASO2 (12.5 mg/kg).
Thirty six 6-week-old wild-type intact FVB mice were purchased from Jackson Laboratories (Bar Harbor, Me.). Tumor volume was measured by digital caliper and calculated using a formula of length×width×width×0.5.

[2] = test system: Foxa1 protein; test: Western blot analysis of Foxa1 protein in MyC-CaP cells after ASO transfection; assay type: cell-based; details: MyC-CaP murine prostate cancer cells, 48 hours after transfection, vs control ASO
Experimental: as §1
MyC-CaP murine prostate cancer cells were transfected with control ASO (Con ASO) or two Foxal-specific ASOs (Foxal ASO1 and Foxal ASO2).
The MyC-CaP murine prostate cancer cell line, originally derived from prostate tumors of Hi-Myc transgenic mice in FVB genetic background, was purchased from ATCC (Manassas, Va.).
Antibodies used include anti-FOXA1 antibody (# ab23738, Abcam), anti-ERK2 (# sc-1647, Santa Cruz Biotechnology), anti-mouse PD-L1 mAb (clone 10B5), and InVivoMAb mouse IgG1 isotype control (clone MOPC-21) (# BE0083, Bio X Cell).

[3] = test system: TRAMP-C2 tumors; test: Growth and survival of TRAMP-C2 prostate tumors in syngeneic C57BL/6 mice treated intratumorally with Poly(I:C); assay type: in vivo
Source text: (§2) FIGS. 13A-13H. FOXA1 overexpression confers cancer immuno- and chemo-therapy resistance in mice and patients. FIG. 13A) Schematic diagram of generation and Poly(I:C) treatment of TRAMP-C2 prostate tumors in syngeneic mice. FIG. 13B) Growth of TRAMP-C2-Vector and TRAMP-C2-FOXA1ΔαH3 tumors treated with or without Poly(I:C). FIG. 13C) Tumor-free survival of syngeneic mice bearing TRAMP-C2-Vector or TRAMP-C2-FOXA1ΔαH3 tumors administrated with or without Poly(I:C). Statistical significance was determined by Log-rank (Mantel-Cox) test. FIGS. 13D and 13E) PhenoGraph-defined cellular distribution and clustering, as defined by tSNE1 and tSNE2, colored by cellular phenotypes in TRAMP-C2-Vector and TRAMP-C2-FOXA1ΔαH3 tumors from mice at 16 days post vehicle or Poly(I:C) treatment (FIG. 13D). Data were derived from all normalized viable single cells, subjected to the PhenoGraph algorithm. Data in the bar graphs (FIG. 13E) are means ±s.d, n=3. […] Statistical significance was determined by unpaired two-tailed Student's t tests in FIGS. 13E, 13F and 13G. FIG. 13H) Progression-free survival of patients with FOXA1-expression low or high urothelial carcinoma treated with anti-PD1 immunotherapy. Statistical significance was determined by Log-rank (Mantel-Cox) test.
To directly explore the role of FOXA1 in inhibiting cancer immune response, stable murine prostate cancer TRAMP-C2 cell lines overexpressing FOXA1-WT, cancer-associated mutant FOXA1-R261G and DNA binding-deficient mutant FOXA1ΔαH3, were established. […]
TRAMP-C2-Vector or TRAMP-C2-FOXA1ΔαH3 cells (3×10^6) were injected subcutaneously into the right flank of 8-week old male C57BL/6 on day 0. Tumors were measured twice per week with calipers and the volume calculated (length×width×width×0.5). Poly I:C (2.5 mg/kg, 100 pl) purchased from Sigma-Aldrich (# P1530) or vehicle (PBS, 100 pl) was administered by intratumoral injection twice per week (five doses in total) and tumors were measured twice per week until the tumor volume reached the maximum allowed size ([…]). […]

[4] = test system: TRAMP-C2 tumors; test: CyTOF analysis of immune cells in TRAMP-C2 tumors after Poly(I:C); assay type: in vivo, mice
Source text: as §2
TRAMP-C2-Vector or TRAMP-C2-FOXA1ΔαH3 cells (3×10^6) were injected subcutaneously into the right flank of 8-week old male C57BL/6 on day 0. Tumors were measured twice per week with calipers and the volume calculated (length×width×width×0.5). Poly I:C (2.5 mg/kg, 100 pl) purchased from Sigma-Aldrich (# P1530) or vehicle (PBS, 100 pl) was administered by intratumoral injection twice per week (five doses in total) and tumors were measured twice per week until the tumor volume reached the maximum allowed size ([…]). For CyTOF and Immunofluorescence experiments, mice were euthanized at 48 hours post the last administration.
Single tumor cells were isolated using the Mouse Tumor Dissociation Kit (Miltenyi Biotec, # 130-096-730) following standard protocol. CyTOF staining panels are detailed in Table 3. […]

[5] = biological target: T1, STAT2 (human, UniProt P52630 1-851); test: co-IP of ectopically expressed proteins in 293T cells (FIG. 11E)
T1 construct: also called endogenous STAT2
Experimental: For extraction of nuclear and cytoplasmic proteins from cells, NE-PER Nuclear and Cytoplasmic Extraction Kit (# 78835, Thermo Fisher Scientific) was used according to the manufacturer's instructions. IP buffer (50 mM Tris-HCl pH7.5, 150 mM NaCl, 1% NP40, 0.5% Sodium Deoxycholate) was used to extract whole cell lysate. P rotein A/G agarose (# 20421, Thermo Fisher Scientific) was used for immunoprecipitation of FOXA1 (# ab23738, Abcam) and Flag-tag (dilution 1:1000; # F1804, Sigma-Aldrich). Monoclonal anti-HA agarose (# A2095, Sigma-Aldrich) was used for HA-tag Co-IP. For glutathione-S-transferase (GST) pulldown assay, GST-tagged STAT2 fragment expressed at E. coli was purified by Glutathione Sepharose 4B beads (# 84-239, Genesee Scientific) and incubated with lysate from 293T cells expressing interested proteins, and GST pulldown assays were performed. For protein co-IP, samples eluted in IP butter were incubated with agarose beads and antibodies overnight at 4° C. and washed with 6 times with IP buffer in the following day. Samples were boiled for 10 minutes in 50 μl sample buffer (2% SDS, 10% glycerol, 10% β-mercaptoethanol, bromophenol blue and Tris-HCl, pH 6.8) and subjected to Western blotting.

T1 sequence (P52630 whole entry): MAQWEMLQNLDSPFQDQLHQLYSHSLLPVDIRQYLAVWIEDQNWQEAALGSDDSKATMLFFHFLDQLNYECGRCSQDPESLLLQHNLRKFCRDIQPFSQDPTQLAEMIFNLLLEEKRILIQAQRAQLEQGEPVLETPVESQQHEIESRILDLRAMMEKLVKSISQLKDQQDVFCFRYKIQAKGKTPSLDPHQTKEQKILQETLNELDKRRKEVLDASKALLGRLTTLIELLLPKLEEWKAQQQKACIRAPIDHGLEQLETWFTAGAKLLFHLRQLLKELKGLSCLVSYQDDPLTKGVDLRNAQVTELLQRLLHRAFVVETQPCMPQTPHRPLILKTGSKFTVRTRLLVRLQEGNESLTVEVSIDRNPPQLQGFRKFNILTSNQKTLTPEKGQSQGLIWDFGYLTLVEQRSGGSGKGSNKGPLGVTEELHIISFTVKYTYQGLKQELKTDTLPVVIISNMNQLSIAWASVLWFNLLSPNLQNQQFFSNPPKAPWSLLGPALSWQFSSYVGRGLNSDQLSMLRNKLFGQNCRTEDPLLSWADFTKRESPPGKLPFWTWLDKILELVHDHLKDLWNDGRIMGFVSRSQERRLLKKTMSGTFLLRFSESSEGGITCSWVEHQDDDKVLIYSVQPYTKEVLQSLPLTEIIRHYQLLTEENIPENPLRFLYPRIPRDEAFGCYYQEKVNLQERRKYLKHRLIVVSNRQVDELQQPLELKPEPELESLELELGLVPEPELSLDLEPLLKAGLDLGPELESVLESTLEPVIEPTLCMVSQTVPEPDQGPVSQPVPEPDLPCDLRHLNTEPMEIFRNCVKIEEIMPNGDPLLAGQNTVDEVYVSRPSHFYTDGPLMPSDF

Molecule	tumor growth [1]	Foxa1 protein knockdown [2]	binding result [5]	further results
Foxa1 ASO1: LNA/PS antisense oligo +G*+G*+T*A*G*C*G*C*C*A*T*A*A*G*G*A*G*+A*+G*+T (SEQ ID NO: 42) (antisense GGTAGCGCCATAAGGAGAGT; sugars from the 5' end l3 d14 l3, all phosphorothioate, methylation of C not given here)	significantly inhibited tumor growth	substantially knocked down		
Foxa1 ASO2: LNA/PS antisense oligo +T*+G*+G*A*T*G*G*C*C*A*T*C*G*+T*+G*+A (SEQ ID NO: 43) (antisense TGGATGGCCATCGTGA; sugars from the 5' end l3 d10 l3, all phosphorothioate, methylation of C not given here)	significantly inhibited tumor growth	substantially knocked down		
Poly(I:C)				tumor growth-inhibitory effect ([3]; TRAMP-C2-FOXA1ΔαH3 tumors, Poly I:C 2.5 mg/kg intratumoral): largely diminished; overall mouse survival ([3]; TRAMP-C2-Vector tumors, Poly I:C 2.5 mg/kg intratumoral): prolonged; tumor growth ([3]; TRAMP-C2-Vector tumors, Poly I:C 2.5 mg/kg intratumoral twice per week, five doses): decreased the growth; TILs, especially CD8+ T and NK cells ([4]; TRAMP-C2-FOXA1ΔαH3 tumors): such effect was diminished; CD11b+Gr1+ myeloid-derived suppressor cells (MDSCs) ([4]; TRAMP-C2-Vector tumors): reduced; TILs, especially CD8+ T and NK cells ([4]; TRAMP-C2-Vector tumors): discernibly increased
B1			binds	
B2			binds	
B3			binds	
